Reference: patent US6207648A, “Methods of using cytochrome P450 reductase for the enhancement of P450-based anti-cancer gene therapy” (priority 1998, dated 2001)

Columns and labels:
[1] = tested on: 9L/pBabe, 9L/2B6/reductase and 9L/2C18-Met/reductase tumors in scid mice; assay: Tumor growth delay assay in scid mice; assay type: in vivo, mouse
From the text: FIGS. 19A-19D are graphs depicting the results of a tumor growth delay assay in severe combined immunodeficiency (scid) mice bearing 9L/pBabe, 9L/2B6/reductase, and 9L/2C18-Met/reductase solid tumors. Shown are the effects of CPA treatment on growth of 9L/pBabe tumors growing on the left flank of scid mice that also bear either a 9L/2B6/reductase tumor (FIG. 19A) or a 9L/2C18-Met/reductase tumor ((FIG. 19C)) on the right flank. Also shown are the effects of CPA on growth of 9L/2B6/reductase (FIG. 19B) or 9L/2C18-Met/reductasetumors ((FIG. 19D)) in these same mice. Tumor areas were measured twice a week with Vernier calipers. The arrows above the x-axis in each panel indicate the days on which CPA was given by intraperitoneal (i.p.) injection at 150 mg/kg, as described in the "Materials and Methods" section of Example 2. Data shown is mean tumor area (mm^2)±SEM for n=4 tumors per treatment group. Mice not treated with CPA died earlier than the CPA-treated mice, as indicated by the earlier decrease in number of remaining mice from n =4 (initial number of mice/group) to n=3, 2, or 1. Open circles indicate CPA-treated mice; closed circles indicate saline controls.
Tumor Growth Delay Assay: Six week old male ICR/Fox Chase/outbred immunodeficient scid mice (Paine-Murrieta, G. D., et al., Cancer Chemother Pharmacol. 40:209-214 (1997)) (Taconic Farms, Germantown, N.Y.) weighing 26-31g were given subcutaneous tumor cell injections to form solid tumors. Tumor cells were grown in culture to approximately 75% confluency, harvested by trypsin digestion, washed in PBS, resuspended in fetal bovine serum-free DMEM at a concentration of 8×10^6 cells/ml and kept on ice. Mice were shaved on both hind flanks, and then were injected subcutaneously on the left flank with 4×10^6 9L/pBabe tumor cells, and on the right flank with 4×10^6 of either 9L/2B6/reductase or 9L/2C18-Met/reductase tumor cells (8 mice/group). Tumor cell injections were in a volume of 0.5 ml of serum-free DMEM using a 1/2 inch 27 g needle and 1 ml syringe. Tumor growth was monitored twice a week using Vernier calipers (Manostat Corp., Switzerland) to measure tumor area. On days 26 and 27 after tumor cell inoculation, 4 animals from each group (four 9L/pBabe:9L/2B6/reductase mice and four 9L/pBabe:9L/2C18-Met/reductase mice) received daily intraperitoneal injections of CPA at 150 mg/kg dissolved in 0.3 ml of 0.9% NaCl. The remaining animals received saline injections. Average tumor areas ranged from 80-145 mm^2 at the time of CPA injection. Mice were given a second course of CPA treatment (150 mg/kg×2 daily injections) beginning 24-29 days after the first CPA injection, as indicated in each experiment.

9L-lacZ cells = assay: Bystander cytotoxicity in co-culture with lacZ-marked 9L cells; assay type: cell-based, rat; details: 1 mM CPA, 5 days
Method: CYP2B1^+ cells (FIG. 6A) and CYP2B1^+ RED^++ cells (FIG. 6C) were mixed with equal numbers of lacZ-marked 9L cells and cultured in the absence (FIGS. 6A and 6C) or in the presence (FIGS. 6B and 6D) of 1 mM CPA. Shown are 0.5% glutaraldehyde-fixed cells, 5 days after beginning drug treatment, stained with X-Gal for 4 hours to visualize the 9L-lacZ cells (dark staining).

[2] = tested on: 9L/pBabe, 9L/2B6, 9L/hRED and 9L/2B6/hRED gliosarcoma cells; assay: Cytotoxicity assay of 9L cells transduced with human RED and/or P450 2B6, normoxic or hypoxic (Example 3)
Method: Cells were seeded at 4000 cells/well in 48-well plates and treated with increasing concentrations of CPA for 4 days. Cell growth in comparison to drug-free controls was determined by crystal violet staining and is presented as mean±SD for n=3 replicates.
FIG. 21 is a graph depicting the cytotoxic effects of the bioreductive drug TPZ toward 9L/pBabe control cells and 9L cells transduced with retroviruses encoding human RED and/or P450 2B6 under normoxic culture conditions. Cells were seeded at 4000 cells/well in 48-well plates and treated with increasing concentrations of TPZ for 4 days. Cell growth in comparison to drug-free controls was determined by crystal violet staining and is presented as mean±SD for n=3 replicates.
FIG. 22 is a graph depicting the cytotoxicity of increasing concentrations of TPZ under hypoxic conditions (1% O2) toward 9L tumor cells transduced with retroviruses encoding P450 2B6 and/or human RED. 9L/pBabe cells served as controls. Cells were seeded at 4000 cells/well in 48-well plates and treated with increasing concentrations of TPZ for 4 days. Cell growth in comparison to drug-free controls was determined by crystal violet staining and is presented as mean±SD for n=3 replicates.
FIGS. 24A, 24B and 24C are graphs depicting the cytotoxic effects of TPZ (5 or 10 μM, as indicated) in combination with increasing concentrations of CPA under normoxic culture conditions (19.6% O2, 5% CO2). The data shown were obtained using 9L/2B6/hRED cells (FIG. 24A), 9L/hRED cells (FIG. 24B) and 9L/pBabe (control) cells (FIG. 24C). Data were compared to the cytotoxicity of increasing concentrations of CPA alone (i. e., in the absence of TPZ) measured using the same pools of tumor cells. Cells were seeded at 4000 cells/well in 48-well plates and then treated with the indicated drug concentrations for 4 days. Cell growth in comparison to drug-free controls (i.e., in the absence of CPA and TPZ) was determined by crystal violet staining and is presented as mean±SD for n=3 replicates.
FIGS. 25A, 25B and 25C are graphs depicting the cytotoxic effects of TPZ (0.5 or 1.5 μM, as indicated) in combination with increasing concentrations of CPA under hypoxic culture conditions (1% O2, 5% CO2). The data shown were obtained using 9L/2B6/hRED cells (FIG. 25A), 9L/hRED cells (FIG. 25B) and 9L/pBabe (control) cells (FIG. 25C). Data were compared to the cytotoxicity of increasing concentrations of CPA alone (i.e., in the absence of TPZ) measured using the same pools of tumor cells. Cells were seeded at 4000 cells/well in 48-well plates and then treated with the indicated drug concentrations for 4 days. Cell growth in comparison to drug-free controls (i.e., in the absence of CPA and TPZ) was determined by crystal violet staining and is presented as mean±SD for n=3 replicates.
Cytotoxicity assays: To evaluate the chemosensitivity of the P450- and P450/RED-expressing 9L tumor cells, cells were plated in triplicate at 4000 cells/well of a 48-well plate 18-24 hours prior to drug treatment. Cells were then treated with drugs (0 to 1 mM CPA or 0 to 50 μM TPZ, as indicated in each experiment) and placed in a tissue culture incubator maintained under hypoxic conditions (1% O2, 5% CO2, 94% N2) or under normoxic conditions (19.6% O2, 5% CO2, 75.4% N2) for a period of 4 days. 9L/pBabe cells, which were transduced with the empty retroviral plasmid pBabe-puro (see, Example 2), served as controls. Cells remaining after this time were quantitated using a crystal violet/alcohol-extraction assay, as described under Example 2. Data are presented as cell number relative to drug-free controls, mean±SD values for triplicate samples, unless indicated otherwise.

[3] = tested on: 9L gliosarcoma cells (parental, CYP2B1+, CYP2B1+ RED+++); assay: In vitro growth inhibition assay, XTT (Example 1); details: lines PR11, PR7 vs P3, P17; growth inhibition assay
Method: Cells (1000/well) seeded in 96-well plates were treated with the indicated concentrations of CPA for 4 days. Corresponding controls received no drug treatment. Cell survival was determined by an XTT calorimetric assay. Data (mean for triplicate samples) were expressed as growth ratio (%), i. e., cell number (XTT activity) in drug treated plates as a percentage of the corresponding drug-free controls.
Cells (500/well) seeded in 96-well plates were treated with 1 mM cyclophosphamide in the absence or presence of the RED inhibitors AADP (0.5 mM) or DPI (5 μM). Corresponding controls received no drug treatment. Cell survival was determined by an XTT colorimetric assay. Data (mean for triplicate samples) are expressed as growth ratio (%), i.e., cell number (XTT activity) in drug treated plates as a percentage of the corresponding drug-free controls and are representative of 2-3 independent experiments. AADP and DPI were added to the cells 30 minutes prior to CPA treatment.
(B) Growth inhibition assay--Cells (1000/well) seeded in 96 well plates were treated with the indicated concentrations of CPA for 4-5 days. Corresponding controls received no drug treatment. Cell survival was determined by an XTT colorimetric assay, a cell proliferation assay that measures mitochondrial dehydrogenase activity of viable cells (Scudiero, D. A., et al., Cancer Res. 48:4827-4833 (1988)).

Compound: O=P1(N(CCCl)CCCl)NCCCO1 (centres unmarked) [CPA, cyclophosphamide]
- growth delay of 2B6 and P450 reductase-transduced tumors ([1]; 150 mg/kg i.p.): > 50 days
- growth inhibition of 9L/2C18-Met/reductase tumors ([1]; 150 mg/kg i.p.): significant, albeit incomplete growth inhibition
- growth delay for 9L/pBabe tumors ([1]; 2B6 experiment, first cycle 150 mg/kg i.p. x2, days 26 and 27): no growth delay
- growth delay effect against 9L/pBabe control tumors ([1]; 2B6 experiment, second cycle): modest growth delay effect
- growth delay of 9L/pBabe control tumors ([1]; 2C18-Met experiment): 5-6 days
- growth delay in RED tumors ([1]; 9L/2B6/RED and 9L/2C18-Met/RED): 25 to 50 days
- host toxicity ([1]; CPA-treated scid mice): no apparent increase in host toxicity
- growth delay without P450 ([1]; control 9L tumors): 5 to 6 days
- growth of 9L/2B6/reductase tumors ([1]; first cycle 150 mg/kg i.p. x2): fully blocked
- duration of anti-tumor effect in 9L/2B6/reductase tumors ([1]; second cycle): ≥ 75 day after tumor inoculation
- bystander cytotoxicity of CYP2B1+ 9L cells toward CYP2B1- 9L cells (9L-lacZ cells): substantial, albeit incomplete, bystander cytotoxicity
- bystander killing of 9L/lacZ cells by co-culture with CYP2B1+ RED+++ cells (9L-lacZ cells): near complete killing
- elimination of CYP2B1+ and CYP2B1+ RED+++ cells (9L-lacZ cells; unstained cells): essentially eliminated
- effect of hypoxia on CPA cytotoxicity toward 9L/2B6/RED or 9L/2B6 cells ([2]; 1% O2): does not significantly alter the cytotoxicity
- CPA cytotoxicity on retroviral transduction of hRED ([2]; 9L/2B6/hRED vs 9L/2B6, normoxic): large increase in CPA cytotoxicity
- CPA cytotoxicity in 9L/hRED and 9L/pBabe cells ([2]; normoxic): No CPA cytotoxicity was observed
- cytotoxic response of CYP2B1+ cells on RED overexpression [3]: significantly enhanced the cytotoxic response
